Results as given in US20250144095A1, “COMPOSITIONS AND METHODS FOR TREATMENT OF CONNECTIVE TISSUE DISORDERS” (The Johns Hopkins University, priority 2022, published 2025).

How the values were obtained:
Type in all cases: in vivo
[1] = test system: Endothelin-1; assay: Immunofluorescence of Endothelin-1 in descending thoracic aorta of treated Col3a1^G938D/+ mice; conditions: descending thoracic aorta of 8-week-old Col3a1^G938D/+ mice, treated from weaning; cobimetinib est. 2 mg/kg/day, ruboxistaurin est. 8 mg/kg/day
Experimental: Mice were euthanized by isoflurane inhalation and the left common iliac artery was transected to allow for drainage. PBS (pH 7.4) and PBS containing 4% paraformaldehyde (PFA) was flushed through the left ventricle. The heart and thoracic aorta were removed en bloc and fixed in 4% PFA overnight at 4° C. Aortas were submitted for paraffin fixation and longitudinal sections 5 micrometers thick were mounted on glass slides and stained with hematoxylin & eosin (HE), Verhoeff-van Giesen (VVG), Masson's Trichrome, or Picrosirius red (PSR). Slides were imaged at 20× and 40× magnification using a Nikon Eclipse E400 microscope. Collagen content was determined by polarized PSR intensity (31) and elastin breaks were counted by a researcher blinded to genotype and treatment arm using only VVG stained sections where elastin breaks were clearly visualized.
For immunofluorescence, slides were incubated in antigen retrieval solution for 1 minute in a pressure cooker. Sections were incubated with 1% BSA for one hour at room temperature. Primary antibodies were diluted at 1:200 in 1% BSA and incubated overnight at 4° C. Three consecutive washes were performed prior to incubation with anti-rabbit secondary antibodies conjugated to Alexa Fluor 488 (Invitrogen A-11039) or anti-mouse secondary antibodies conjugated to Alexa Fluor 594 (Invitrogen R37119) at 1:200 for 1 hour at room temperature. […]

[2] = test system: Col3a1^G938D mice; assay: Survival drug trial in Col3a1^G938D/+ (vEDS) mice, Kaplan-Meier
Source text: All mice were maintained on a C57BL/6J background (#000664, The Jackson Laboratory). ET1^fl/fl f mice were obtained from RIKEN (RBRC06322). Tie2-Cre mice and Sm22-Cre mice were obtained from the Jackson Laboratory (#004128. #017491). All mice were genotyped according to published protocols.
Restriction enzymes were used to detect the presence or absence of the Col3a1 mutation as previously described. The G938D mutation leads to the gain of a BamHI cut site (R3136S, New England Biolabs). All mice found dead were assessed for cause of death by necropsy, noting in particular hemothorax and hemoperitoneum.
For drug trials in the Col3a1^G938D/+ mice, mice were initiated on medication at weaning and continued until 2 months of age. Cobimetinib (GDC-0973/RO551404, Active Biochem) was dissolved in drinking water and filtered to reach a final concentration of 0.02 g/L giving an estimated dose of 2 mg/kg/day. Ruboxistaurin (LY333531 HCl, Selleck Chemicals) was mixed with powdered food (LabDiet) to give a concentration of 0.1 mg/g giving an estimated dose of 8 mg/kg/day. […]
By design, each treatment trial included contemporaneous control (untreated) mice. […] All p-values calculated by log-rank comparisons (using Prism) are reported as unadjusted p-values, given the interdependence of many of the drug mechanisms. […]

[3] = test system: p-PKC; assay: Western blot of p-PKC in proximal descending thoracic aorta of treated Col3a1^G938D mice; conditions: normalized to β-actin, vs untreated
Experimental: (§1) Protein was extracted using an automatic bead homogenizer in conjunction with a Protein Extraction Kit (Full Moon Biosystems). All protein lysis buffers contained both PhosSTOP and cOmplete™, Mini, EDTA-free Protease Inhibitor Cocktail (Roche). Western blotting was performed using LI-COR buffer and species appropriate secondary antibodies conjugated to IR-dye700 or IRdye-800 (LI-COR Biosciences), according to the manufacturer's guidelines and analyzed using LI-COR Odyssey. The following primary antibodies were used: anti-β-Actin (8H10D10) (Cell Signaling Technology, 3700), anti-phospho ERK1/2 (Cell Signaling Technology, 4370), anti-PKCβ (phospho S660) (Abcam, 75837), anti-Endothelin-1 (TR.ET.48.5) (Thermo Fisher Scientific, MA3005), anti-Endothelin-1 (TR.ET.48.5) (Abcam, 2786).
(§2) pERK and pPKC amounts were normalized to j-actin as opposed to total ERK or total PKC for a variety of practical reasons. First, it is the amount of phosphorylated protein, and not the ratio of phosphorylated to unphosphorylated protein, that drives cellular responses. Second, we are unaware of any pathophysiologic context where the amount of unphosphorylated protein is limiting (i.e. always in excess). […]

[4] = test system: p-ERK1/2; assay: Western blot of p-ERK1/2 in proximal descending thoracic aorta of treated Col3a1^G938D mice; conditions: normalized to β-actin, vs untreated
Experimental: as §1, §2

## O=C(c1ccc(F)c(F)c1Nc1ccc(I)cc1F)N1CC(O)([C@@H]2CCCCN2)C1 [cobimetinib, Cobimetinib]
[1]
  ET1 protein levels in aorta (in words): attenuated

## CN(C)C[C@@H]1CCn2cc(c3ccccc32)C2=C(C(=O)NC2=O)c2cn(c3ccccc23)CCO1 [ruboxistaurin, Ruboxistaurin]
[1]
  ET1 protein levels in aorta (in words): attenuated

## COc1ccccc1Oc1c(NS(=O)(=O)c2ccc(C(C)(C)C)cc2)nc(-c2ncccn2)nc1OCCO [bosentan, Bosentan]
[2]; Col3a1^G938D/+ mice vs untreated, Log-Rank (Mantel-Cox)
  effect on survival (in words): moderately but significantly improved survival
[2]; vEDS (Col3a1^G938D) mice, drug from weaning (P21), followed 45 days, in food, estimated 100 mg/kg/day, untreated 46%
  mice surviving to the end of the trial: 70%
[3]
  p-PKC level in aorta (in words): marked downregulation
[4]
  p-ERK1/2 level in aorta (in words): not p-ERK1/2
